Data as given in PubChem BioAssay AID2060327 (Molecular Pharmacology Branch, DTP, NCI, 2025).

System: PC-3 multi-cell spheroids, viability
Assay: Anticancer human tumor PC-3 cell line growth inhibition [IpAb];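 also: spheroids exposed to compounds for 7 days before readout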;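 as to viability, T/C: 100% = DMSO vehicle control wells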
Details: for IC50: curve of first compound; for viability, T/C: stronger effect = lower value
Summary of the method: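 Combinations with ipatasertib or abemaciclib were tested on tumour spheroids holding HUVEC (25%) and MSC (15%) alongside 60% malignant cells. Top concentration was at or near clinical Cmax (10 microM if undefined), descending in half-log steps.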

Cn1ncnc1[C@H]1c2n[nH]c(=O)c3cc(F)cc(c23)N[C@@H]1c1ccc(F)cc1 + CCN1CCN(Cc2ccc(Nc3ncc(F)c(-c4cc(F)c5nc(C)n(C(C)C)c5c4)n3)nc2)CC1
IC50 (second compound 0.01 µM): 9.02 nM | IC50 (second compound 0.0316 µM): 2.23 nM | IC50 (second compound 0.1 µM): 0.803 nM | IC50 (second compound 0.316 µM): 28.4 nM | IC50 (second compound 1 µM): 5.12 nM | viability, T/C (second compound 0.01 µM, first compound 0.000316 µM): 82% | viability, T/C (second compound 0.01 µM, first compound 0.001 µM): 61.4% | viability, T/C (second compound 0.01 µM, first compound 0.00316 µM): 60.6% | viability, T/C (second compound 0.01 µM, first compound 0.01 µM): 47.1% | viability, T/C (second compound 0.01 µM, first compound 0.0316 µM): 46% | viability, T/C (second compound 0.01 µM, first compound 0.1 µM): 44.3% | viability, T/C (second compound 0.0316 µM, first compound 0.000316 µM): 61.5% | viability, T/C (second compound 0.0316 µM, first compound 0.001 µM): 50.8% | viability, T/C (second compound 0.0316 µM, first compound 0.00316 µM): 47.3% | viability, T/C (second compound 0.0316 µM, first compound 0.01 µM): 49.3% | viability, T/C (second compound 0.0316 µM, first compound 0.0316 µM): 48% | viability, T/C (second compound 0.0316 µM, first compound 0.1 µM): 39% | viability, T/C (second compound 0.1 µM, first compound 0.000316 µM): 48.2% | viability, T/C (second compound 0.1 µM, first compound 0.001 µM): 50.3% | viability, T/C (second compound 0.1 µM, first compound 0.00316 µM): 52.1% | viability, T/C (second compound 0.1 µM, first compound 0.01 µM): 48.6% | viability, T/C (second compound 0.1 µM, first compound 0.0316 µM): 44% | viability, T/C (second compound 0.1 µM, first compound 0.1 µM): 42.7% | viability, T/C (second compound 0.316 µM, first compound 0.000316 µM): 59.6% | viability, T/C (second compound 0.316 µM, first compound 0.001 µM): 58.2% | viability, T/C (second compound 0.316 µM, first compound 0.00316 µM): 64% | viability, T/C (second compound 0.316 µM, first compound 0.01 µM): 54.5% | viability, T/C (second compound 0.316 µM, first compound 0.0316 µM): 47.6% | viability, T/C (second compound 0.316 µM, first compound 0.1 µM): 37.8% | viability, T/C (second compound 1 µM, first compound 0.000316 µM): 61% | viability, T/C (second compound 1 µM, first compound 0.001 µM): 48.8% | viability, T/C (second compound 1 µM, first compound 0.00316 µM): 46.5% | viability, T/C (second compound 1 µM, first compound 0.01 µM): 49.6% | viability, T/C (second compound 1 µM, first compound 0.0316 µM): 44.6% | viability, T/C (second compound 1 µM, first compound 0.1 µM): 29.4%
